Reference: US20040137639A1, “Method of judging efficacy of biological state action affecting bioligical state, judging apparatus, judging system, judging program and recording medium holding the program” (priority 2001, published 2004)

Tested on: depressive patient
Test: Fluctuation in the difference of Lyapunov exponent and entropy (mirror dynamic) under medication
Format: in vivo, human
Conditions: Patient A or Patient B, early stages of treatment, FIG. 15
Procedure: Taking for an example the case where the action that may change a biological state is a medication, described below is a judging method for the symmetric property of Lyapunov exponent and entropy directly from the graph where the variations of these exponents with time are recorded.
This means, in other words, there exist fluctuations in the difference between Lyapunov exponent and entropy, and such a state can be called “mirror dynamic”. […] On the other hand, the fluctuation in the difference (shadow area) of Lyapunov exponent and entropy is minor in the early stages of treatment for Patient B, and therefore it can be judged that the effectiveness of medication of cloxazolam (1 mg) is low. […]
In the method according to this embodiment for judging the efficacy of an action, measurements of Lyapunov exponent and entropy are carried out at least twice, i.e. before and after the medication. […] Lyapunov exponent and entropy measured at least once after the medication are compared to the results before the medication, the variation in the symmetric property between the Lyapunov exponent and the entropy and the directional property of temporal variation in the difference between the Lyapunov exponent and the entropy, and then the effectiveness of the drug can be judged. […]

O=C1CN2CCOC2(c2ccccc2Cl)c2cc(Cl)ccc2N1 (stereo not shown) [cloxazolam, Cloxazolam]
effectiveness of medication judged from fluctuation in the difference (shadow area) of Lyapunov exponent and entropy: low
